Reference: patent US20080292586A1 (priority 2005, published 2008)
In brackets after ≈: the same amount, converted by molar mass.

Legend:
[1] = system: H5N1 Avian influenza virus (A/VN/1203/04); assay: microbe, parasite or virus in culture; type: cell-based
[2] = system: MDBK cells; settings: bovine
[3] = Influenza A virus, H5N1, MDBK, 72 h

`NC(=O)c1ncn([C@@H]2O[C@H](CO)[C@@H](O)[C@H]2O)n1` [Ribavirin] was tested, and the IC25 [1] was 1.01 µg/mL (≈ 4.14 µM), the IC50 ([1]; Influenza A virus, H5N1, MDBK) was 1.96 µg/mL (≈ 8.03 µM) and the IC50 [1, 3] was 1.69 µg/mL (≈ 6.92 µM). For the same compound, the IC90 [1, 3] was 5.01 µg/mL (≈ 20.5 µM) and the “cytotoxicity profile (in words)” value [2] was “toxic at concentrations above that which protected 80% of cells from H5N1 infection”.
